Experimental data taken from US20170304329A1 (THE UNIVERSITY OF KANSAS, priority 2014, published 2017).

Columns and labels:
[1] = test system: Notch1 signaling and γ-secretase complex proteins in T24 cells; assay: Western blot of Notch signaling pathway proteins; format: cell-based, human; details: bladder cancer cell lines (T24)
Description: Western blot studies were performed to detect the effect of CPX on the expression of proteins involved in Notch signaling pathway. Cell lysates were subjected to polyacrylamide gel electrophoresis and blotted onto Immobilon polyvinylidene difluoride membranes (Millipore, Bedford, Mass., USA). Antibodies were purchased from Cell Signaling Technology (Beverly, Mass., USA), Abcam Inc. (Cambridge, Mass., USA) and Santa Cruz Biotechnology Inc. (Santa Cruz, Calif., USA) and specific proteins were detected by the enhanced chemiluminescence system (GE Healthcare, Piscataway, N.J., USA).

[2] = test system: T24 cells transfected with Notch-1 intracellular domain (NICD); assay: Ectopic NICD expression and cell proliferation; format: cell-based, human; details: CPX 4 μM
Description: We determined whether ectopic expression of NICD reversed ciclopirox (CPX) mediated inhibition of cell proliferation. For this study, T24 Cells were transfected with plasmid EF.hICN1.CMV.GFP encoding the Notch-1 intracellular domain (NICD) or the empty vector EF.v-CMV.GFP (Addgene Inc.) and subsequently treated with CPX (4 μM). Cell proliferation was detected using hexoaminidase assay.

253JBV cells = assay: Proliferation with predicted CPX urine concentration in 20% normal urine; format: cell-based, human; details: 3 days treatment, 50 uM-1.5625 uM CPX in 20% normal urine, 72 h
Description: (§1) We next determined the effect of CPX in normal urine on T24 and 253JBV cells upon everyday treatment for up to 72 h (3 days treatment). The idea behind this experiment is to see the effect of predicted concentration of CPX in human urine on bladder cancer cells as the patient's bladder will be exposed every day to the predicted concentration of CPX. Three sets of plates were used, one plate each for one day treatment, two days treatment and three days treatment of CPX (50-1.5625 uM). T24 and 253JBV cells were incubated with CPX in normal urine (20% normal urine in complete RPMI media). […] The effect of CPX was determined by hexosaminidase assay beyond the 12 hours of varying CPX concentration (25 h, 48 h, and 72 h). In two days treatment, the cells are exposed to 50 uM-1.5625 uM for two days and the effect was determined by hexosaminidase assay at 48 h and 72 h time points. In three days treatment, the cells are exposed to 50 uM-1.5625 uM for three days and the effect was determined by hexosaminidase assay at 72 h time point.
253JBV Cells were incubated with CPX in normal urine (20% normal urine in complete RPMI media). […] The effect of CPX was determined by hexosaminidase assay beyond the 12 hours of varying CPX concentration (25 h, 48 h, and 72 h). […]

T24 cells [3] = assay: as above; format: cell-based, human; details: 3 days treatment, 50 uM-1.5625 uM CPX in 20% normal urine, 72 h
Description: as §1
T24 Cells were incubated with CPX in normal urine (20% normal urine in complete RPMI media). […] The effect of CPX was determined by hexosaminidase assay beyond the 12 hours of varying CPX concentration (25 h, 48 h, and 72 h). […]

[4] = test system: Notch, Wnt and Hedgehog signaling pathways in T24 cells; assay: RT-PCR array of signal transduction pathways; format: cell-based, human
Description: We performed an RT-PCR array analyses as a preliminary study to identify the pathways affected by ciclopirox (CPX). Expression analysis was performed using RT2 Profiler™ PCR Arrays (SA Biosciences, Frederick, Md., USA) per the manufacturer's instructions. The Human signal transduction pathway finder polymerase chain reaction (PCR) array was used (cat. no. PAHS-014ZA). Briefly, Total RNA isolated from T24 cells using TRIZOL reagent was reverse transcribed with Superscript II reverse transcriptase in the presence of random hexanucleotide primers (all from Invitrogen, Carlsbad, Calif.). Complementary DNA (2 μg) was mixed with 1,275 μL RT2 SYBR Green qPCR Master Mix (PA-010; SA Biosciences) to make up a total volume of 2,550 μL. Each well received 25 μL of this mix. qPCR was performed on an Bio-Rad CFX machine following detection protocols recommended by SA Biosciences. Changes in mRNA expression were expressed as fold change relative to control.

T24 cells [5] = assay: Flow cytometry-based cell cycle analysis; parameters: species or system human
Description: Flow cytometry-based cell cycle analysis studies were conducted to determine the effect of ciclopirox (CPX) on cell cycle progression in T24 cells (data not shown). […] At 1×IC50 and 2×IC50 concentrations, CPX arrest cells at G0/G1 phase. Cells were treated with CPX and a flow cytometer based analysis was performed.

`Cc1cc(C2CCCCC2)n(O)c(=O)c1` [CPX, 6-cyclohexyl-1-hydroxy-4-methylpyridin-2(1H)-one] was tested, and the “expression of Notch pathway proteins” value [1] was “significantly inhibited the expression of the γ-secretase complex proteins”, the “rescue of proliferation by NICD” value [2] was “Ectopic expression of NICD reversed CPX mediated inhibition of cell proliferation” and the “maximum inhibition of proliferation” value (253JBV cells) was 35%. For the same compound, the “maximum inhibition of proliferation” value (T24 cells [3]) was 20%, the “mRNA expression of CSC signaling pathway genes” value [4] was “significantly reduced the mRNA expression of Notch and its downstream signaling proteins” and the cell cycle progression (T24 cells [5]) was “induces S-phase cell cycle arrest”.
